# Laboratory results reported in US20260144769A1, “4-PHENYLBUTYRATE RESTORED GABA UPTAKE AND REDUCED SEIZURES IN SLC6A1 VARIANT-MEDIATED DISORDERS” (Vanderbilt University, priority 2022, published 2026).
# Assays:
# [1] = test system: GAT-1 in human iPSC-derived neurons; assay: 3H GABA uptake, human iPSC-derived neurons; assay type: cell-based; conditions: PBA treated human iPSC-derived neurons; PBA 2 mM, 24 hrs
# Method: Live images of human neural progenitor cells (NPCs), astrocytes and GABAergic inhibitory neurons differentiated from the human induced pluripotent stem cells (iPSCs) on the day of experiment. […] The DMSO treated corrected or patient cells was taken as 1. […] GABA flux was measured after 30 min transport at room temperature. The influx of GABA, expressed in pmol/μg protein/min, was averaged from duplicates for each condition and for each transfection. The average counting was DMSO treated condition taken as 1. In FIG. 5B, FIG. 5D and FIG. 5F, 966 stands for CI-966 (50 μM) and 711 stands for NNC-711 (35 μM) that was applied 30 min to the astrocytes transfected with the wildtype GAT-1^YFP before preincubation and removed during preincubation. In FIGS. 5B and D, ***p<0.001 vs. corrected DMSO treated. § § <0.01, § § § p<0.001 vs. patient DMSO treated. […] In FIGS. 5B-E, n=4-8 batches of cells. In FIG. 5F, n=4-5 different transfections). Unpaired t test was used for FIG. 5C and FIG. 5E. […] Values were expressed as mean±S.E.M.). […]
# Briefly, cells were cultured in […] dishes for 3 days before the GABA uptake experiment in DMEM with 10% fetal bovine serum and 1% penicillin/streptomycin. […] Glacial acetic acid was added, and lysates were then determined on a liquid scintillator with QuantaSmart. […]
# [2] = cited from earlier work
smiles,measurement,setting,value
"O=C(O)CCCc1ccccc1 [PBA, 4-phenylbutyric acid]",increase of GABA uptake,[1],~20%
same,oral bioavailability,[2],orally bioavailable
